From ChEMBL document CHEMBL1201862, “PubChem BioAssay data set” (2004) come the findings set out here.

Experiment in all cases: NCI tumour cell line growth inhibition, 48 h
Assay [1] has as its system RPMI-8226.
For assay [2], the system named is OVCAR-4.
Assay [3] has as its system UO-31.
The subject of assay [4] is CCRF-CEM.
For assay [5], the system named is MOLT-4.
The test system of assay [6] is UACC-62.
In assay [7] the test system is HT-29.
For assay [8], the system named is SK-OV-3.
Assay [9] relates to EKVX.
In assay [10] the test system is A549.
Assay [11] relates to SK-MEL-2.
Assay [12] deals with SN12C.
Assay [13] deals with SF-268.
In assay [14] the test system is OVCAR-3.
The subject of assay [15] is RXF 393.
Assay [16] has as its system ACHN.
Assay [17] has as its system SNB-75.
Assay [18] relates to CAKI-1.
For assay [19], the system named is SR.
Assay [20] has as its system Hs-578T.

The structures appear in SMILES notation.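 Briefly, cells in 96-well plates were exposed to five compound concentrations for 48 h, and endpoints were estimated by linear interpolation. Here, GI50 denotes the concentration required for 50% inhibition of growth.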 The source made the active and inactive calls. Cut-off read from the data, not from the text of the source: active = GI50 up to about 1.1 µM and inactive = higher.

`O=P1(N(CCCl)CCCl)Oc2ccc(Cl)cc2Sc2c(ccc(Cl)c2Cl)O1` (stereo not given): the GI50 in assay [1] is 5.02 µM (inactive); in assay [2], 23.9 µM (inactive); in assay [3], 4.71 µM (inactive); in assay [4], 4.41 µM (inactive); in assay [5], 3.96 µM (inactive); in assay [6] it was 17.1 µM (inactive). In addition, the GI50 is 7.29 µM (inactive) in assay [7]; 21.9 µM (inactive) in assay [8]; 8.57 µM (inactive) in assay [9]; 3.78 µM (inactive) in assay [10]; 9.68 µM (inactive) in assay [11]; 11.9 µM (inactive) in assay [12]. In addition, the GI50 is 92.9 µM (inactive) in [13]; 4.95 µM (inactive) in assay [14]; 3.95 µM (inactive) in assay [15]; 7.41 µM (inactive) in assay [16]; 18.8 µM (inactive) in assay [17]; 15.2 µM (inactive) in assay [18]. For the same compound, the figures for the GI50 in assay [19] and in assay [20] were 2.99 µM (inactive) and 2.13 µM (inactive), respectively.

Turning to `N=C(N)SCc1ccc(Cl)c2ccccc12.O=[N+]([O-])c1ccc(O)c([N+](=O)[O-])c1`, the GI50 is 1.32 µM (inactive) in assay [1]; 10.9 µM (inactive) in [2]; 12.3 µM (inactive) in assay [3]; 3.23 µM (inactive) in assay [4]; 1.4 µM (inactive) in assay [5]; 12.5 µM (inactive) in assay [6]. The GI50 in assay [7] is 11.4 µM (inactive); in assay [8], 15.3 µM (inactive); in assay [9], 10.3 µM (inactive); in assay [10] it was 16.9 µM (inactive); in [11], 11.6 µM (inactive); in assay [12], 11 µM (inactive). The GI50 in assay [13] was 15.4 µM (inactive); in [14] it was 8.95 µM (inactive); in assay [15], 8.02 µM (inactive); in assay [16], 12.9 µM (inactive); in assay [17], 4.56 µM (inactive); in assay [18] it was 11.7 µM (inactive). Further, the GI50 is 1.04 µM (active) in assay [19] and 20.7 µM (inactive) in assay [20].

`NC(=O)c1cc2ccc(O)cc2o/c1=N/c1ccccc1`: the GI50 in assay [1] was 20.7 µM (inactive); in [2], 42.3 µM (inactive); in assay [3] it was 3.6 µM (inactive); in assay [4], 37.5 µM (inactive); in assay [5] it was 29 µM (inactive); in [6] it was 28.5 µM (inactive). Also, the GI50 in assay [7] is 33 µM (inactive); in assay [8] it was 34.5 µM (inactive); in assay [9], 31.1 µM (inactive); in assay [10] it was 25.6 µM (inactive); in assay [11] it was 17.2 µM (inactive); in assay [12], 22.3 µM (inactive). Also, the GI50 in assay [13] is 51.2 µM (inactive); in assay [14], 35.2 µM (inactive); in assay [15], 26.2 µM (inactive); in assay [16], 24.9 µM (inactive); in assay [17] it was 13.5 µM (inactive); in assay [18] it was 19.3 µM (inactive). Moreover, the GI50 was 16.1 µM (inactive) in assay [19] and 64.3 µM (inactive) in assay [20].

Turning to `CC(C)(C)NNc1c([N+](=O)[O-])cnn(-c2ccccc2)c1=O`, the GI50 was 3.96 µM (inactive) in [1]; 3.59 µM (inactive) in [2]; 6.12 µM (inactive) in [3]; 0.944 µM (active) in assay [4]; 2.13 µM (inactive) in assay [5]; 3.5 µM (inactive) in [6]. Besides, the GI50 in assay [7] is 2.84 µM (inactive); in assay [8], 9.02 µM (inactive); in assay [9], 9.14 µM (inactive); in assay [10] it was 15.3 µM (inactive); in [11] it was > 10 µM (inactive); in assay [12], 3.14 µM (inactive). Also, the GI50 in assay [13] is 9.82 µM (inactive); in [14] it was 2.59 µM (inactive); in [15] it was 8.32 µM (inactive); in assay [16] it was 8.71 µM (inactive); in assay [17] it was 9.86 µM (inactive); in assay [18] it was 8.69 µM (inactive). The values for the GI50 in [19] and in assay [20] were 1.58 µM (inactive) and 7.76 µM (inactive), respectively.

With `N#Cc1nc(COCCOCc2ccccc2)oc1N`, the GI50 was > 100 µM (inactive) in assay [1]; > 100 µM (inactive) in assay [2]; > 100 µM (inactive) in assay [3]; 30 µM (inactive) in assay [4]; > 100 µM (inactive) in assay [5]; > 100 µM (inactive) in assay [6]. Besides, the GI50 in assay [7], in assay [8], in assay [9], in assay [10], in assay [11] and in assay [12] was > 100 µM (inactive) each time. Besides, the GI50 in assay [13], in assay [14], in assay [15], in [16], in [17] and in assay [18] was > 100 µM (inactive) throughout. In addition, the GI50 in assay [19] and in assay [20] was > 100 µM (inactive) in each case.

`O=Cc1ccccc1B(O)O`: the GI50 in assay [1] was < 0.01 µM (active); in [2], 0.368 µM (active); in assay [3], 54.1 µM (inactive); in assay [4], 6.34 µM (inactive); in assay [5], 1.09 µM (active); in assay [6], 31.5 µM (inactive). For the same compound, the GI50 in assay [7] was 18.9 µM (inactive); in assay [8] it was > 100 µM (inactive); in assay [9], < 0.01 µM (active); in [10] it was 12.7 µM (inactive); in assay [11], > 100 µM (inactive); in assay [12], > 100 µM (inactive). In addition, the GI50 in assay [13] is > 100 µM (inactive); in assay [14], 33.6 µM (inactive); in assay [15] it was 15.7 µM (inactive); in [16], 19.1 µM (inactive); in [17] it was 43.8 µM (inactive); in [18], 47.5 µM (inactive). The results for the GI50 in [19] and in assay [20] were < 0.01 µM (active) and 0.231 µM (active), respectively.

As to `c1ccc2c(c1)CN1CCCC1CN2` (stereo not given), the GI50 in [1], in assay [2], in [3], in assay [4], in [5] and in [6] was > 100 µM (inactive) each time. Moreover, the GI50 in assay [7], in [8], in [9], in [10], in assay [11] and in assay [12] was > 100 µM (inactive) each time. Also, the GI50 in [13], in assay [14], in assay [15], in assay [16], in [17] and in [18] was > 100 µM (inactive) each time. Also, the GI50 in assay [19] and in [20] was > 100 µM (inactive) in each case.

With `C=C(Br)CNC(=O)CCC(=O)NCC(=C)Br`, the GI50 in [1], in assay [2], in [3], in assay [4], in [5] and in assay [6] was > 100 µM (inactive) each time. In addition, the GI50 in assay [7], in assay [8], in assay [9], in assay [10], in [11] and in assay [12] was > 100 µM (inactive) in each case. The GI50 in [13], in [14], in [15], in assay [16], in assay [17] and in assay [18] was > 100 µM (inactive) each time. For the same compound, the GI50 in assay [19] and in assay [20] was > 100 µM (inactive) in each case.

As to `N#CCCC1(CCC#N)S(=O)(=O)OCCOS1(=O)=O`, the GI50 in assay [1] was 37 µM (inactive); in assay [2], 20.7 µM (inactive); in [3] it was 50.5 µM (inactive); in [4], 28.7 µM (inactive); in assay [5], 24.7 µM (inactive); in [6] it was 9.4 µM (inactive). Besides, the GI50 is 45.9 µM (inactive) in [7]; 51.3 µM (inactive) in assay [8]; > 100 µM (inactive) in [9]; 48.1 µM (inactive) in [10]; 42.2 µM (inactive) in assay [11]; 29.6 µM (inactive) in assay [12]. In addition, the GI50 in assay [13] is 32.9 µM (inactive); in assay [14] it was 32.1 µM (inactive); in [15] it was 37.1 µM (inactive); in assay [16], 32.4 µM (inactive); in [17], 32.1 µM (inactive); in [18], 40.6 µM (inactive). Also, the GI50 is 29.6 µM (inactive) in assay [19] and 18.2 µM (inactive) in assay [20].

`Cc1ccc(NC(=O)c2cc(S(=O)(=O)Nc3nc4cccnc4[nH]3)c(SSc3cc(Cl)c(C(=O)Nc4ccc(C)cc4)cc3S(=O)(=O)Nc3nc4cccnc4[nH]3)cc2Cl)cc1`: the GI50 in assay [1], in assay [2], in assay [3], in assay [4], in assay [5] and in assay [6] was > 100 µM (inactive) throughout. In addition, the GI50 in assay [7], in assay [8], in assay [9], in assay [10], in [11] and in assay [12] was > 100 µM (inactive) each time. The GI50 in assay [13], in assay [14], in assay [15], in assay [16], in [17] and in assay [18] was > 100 µM (inactive) each time. The GI50 in assay [19] and in assay [20] was > 100 µM (inactive) in each case.
